Entries after “also recorded” stand apart in the source; their conditions may differ.
Key:
[1] = test system: Human breast cancer cells MDA-MB-231; assay: Viability by trypan blue exclusion test after cell labeling; format: cell-based; conditions: for Viability (%) (±SEM): 83 μM incubation, MDA-MB-231
Description: (§1) Human breast cancer cells MDA-MB-231 were grown at 37° C. with 5% CO2 in 1640-RPMI medium supplemented with 10% fetal bovine serum and 0.5% penicillin streptomycin. Contrast agents were quantified for manganese content by flame AAS prior to cell labeling. MnTCP was dissolved in ultrapure water and MnTriAMP was dissolved in DMSO to give 17 mM stock solutions. The stock solutions were added to the medium with the cells resulting in 83 μM incubation of 2-MnTriAMP or 1-MnTCP for 2 hours. The medium was removed and the cells were washed with fresh medium 5× and then were harvested by washing with PBS followed by addition of 0.05% trypsin EDTA to detach the cells. Viability was assessed directly after labeling with trypan blue exclusion test and observation of cell morphology by phase microscopy.

[2] = test system: Human breast cancer cells MDA-MB-231; assay: Intracellular contrast agent concentration by GFAAS of cell digests; format: cell-based; conditions: for Mn / Mn content per cell relative to control: GFAAS of cell digests; for Mn: 83 μM incubation for 2 hours; for Mn content per cell relative to control: control = 1
Description: as §1
The intracellular contrast agent concentration was determined after cell labeling by centrifugation of a known number of cells followed by removal of the supernatant and digestion of the cells by addition of 1 M nitric acid (0.5 ml) and 30 min of heating at 70° C. Then 3 ml of ultrapure water was added to the digested cells, the mixture was filtered and then quantified by graphite furnace atomic absorption spectroscopy (GFAAS) shown in Table 3.

[3] = test system: MDA-MB-231 breast cancer cell pellets; assay: MRI T1 and T2 time measurements of labeled cell pellets; format: cell-based, Human; conditions: MDA-MB-231 cell pellets after 83 μM incubation for 2 hours
Description: as §1
For MRI, cell pellets were formed by centrifugation at 440 g for 10 minutes. Subsequent MR was done with a T1-weighted 2D spin-echo image: TR=100 ms, TE=14.163 ms, 3 mm slice thickness, 0.5×0.5 mm in-plane resolution (FIG. 1).

[4] = 0.47 T (20 MHz for 1H Larmor frequency), 37° C.; cited from earlier work

Row | Compound | Viability (%) (±SEM) ([1]; 0 hours after 2 h treatment) | Viability (%) (±SEM) ([1]; 3 days after 2 h treatment) | Mn [2] [mM/cell] | Mn content per cell relative to control [2] | T1 [3] [ms] | T2 [3] [ms] | relaxivity [4] [mM⁻¹ s⁻¹] | toxicity / cell viability after labeling (in words) ([1]; MDA-MB-231 after labeling) | cellular uptake (in words) ([2]; MDA-MB-231, compared to 1-MnTCP, from relaxation times and GFAAS data)
1 | O=C(O)c1c2nc(c(C(=O)O)c3ccc([n-]3)c(C(=O)O)c3nc(c(C(=O)O)c4ccc1[n-]4)C=C3)C=C2.[Cl-].[Mn+3] [1-MnTCP, [5,10,15,20-tetrakis(carboxy)porphyrinato]manganese(III) chloride] | 98 ± 1 | 80 ± 6 | 1.90E−13 | 33.22 | 1072.1 ± 28.0 | 108.1 ± 9.3 | – | – | –
2 | MnTPPS | – | – | – | – | – | – | ~12 | – | –
3 | [5-carboxy-10,15,20-tris(acetoxymethylcarboxy)porphyrinato]manganese(III) [2-MnTriAMP] | 97 ± 2 | 87 ± 6 | 6.05E−13 | 105.83 | 215.4 ± 12.1 | 66.7 ± 4.4 | – | without affecting the cell viability | significant uptake; also recorded: sufficient cellular uptake and retention

From patent US20160235866A1, “MRI CONTRAST AGENTS FOR CELL LABELING” (THE GOVERNING COUNCIL OF THE UNIVERSITY OF TORONTO, priority 2013, published 2016)
